# Assay results published in ChEMBL document CHEMBL5584299, “Undobolins A-L, Ophiobolin-Type Sesterterpenoids from Aspergillus undulatus” (J Nat Prod, 2024).
# How the values were obtained:
# Splenocyte [1] = test: Immunosuppressive activity in BALB/c mouse splenocytes assessed as inhibition of LPS-induced B cell proliferation incubated for 48 hrs by CCK-8 assay; type: functional, cell-based
# Splenocyte [2] = test: Immunosuppressive activity in BALB/c mouse splenocytes assessed as inhibition of ConA-induced T cell proliferation incubated for 48 hrs by CCK-8 assay; type: functional, cell-based
# RAW264.7 = test: Antiinflammatory activity against mouse RAW264.7 cells assessed as reduction of LPS-induced NO production preincubated for 2 hrs followed by LPS-stimulation and measured after 12 hrs by Griess reagent assay; type: functional, cell-based
# [3] = target: T1, 3-hydroxy-3-methylglutaryl-coenzyme A reductase (Homo sapiens, UniProt P04035); test: Inhibition of human HMGR
# T1 sequence (P04035 whole entry): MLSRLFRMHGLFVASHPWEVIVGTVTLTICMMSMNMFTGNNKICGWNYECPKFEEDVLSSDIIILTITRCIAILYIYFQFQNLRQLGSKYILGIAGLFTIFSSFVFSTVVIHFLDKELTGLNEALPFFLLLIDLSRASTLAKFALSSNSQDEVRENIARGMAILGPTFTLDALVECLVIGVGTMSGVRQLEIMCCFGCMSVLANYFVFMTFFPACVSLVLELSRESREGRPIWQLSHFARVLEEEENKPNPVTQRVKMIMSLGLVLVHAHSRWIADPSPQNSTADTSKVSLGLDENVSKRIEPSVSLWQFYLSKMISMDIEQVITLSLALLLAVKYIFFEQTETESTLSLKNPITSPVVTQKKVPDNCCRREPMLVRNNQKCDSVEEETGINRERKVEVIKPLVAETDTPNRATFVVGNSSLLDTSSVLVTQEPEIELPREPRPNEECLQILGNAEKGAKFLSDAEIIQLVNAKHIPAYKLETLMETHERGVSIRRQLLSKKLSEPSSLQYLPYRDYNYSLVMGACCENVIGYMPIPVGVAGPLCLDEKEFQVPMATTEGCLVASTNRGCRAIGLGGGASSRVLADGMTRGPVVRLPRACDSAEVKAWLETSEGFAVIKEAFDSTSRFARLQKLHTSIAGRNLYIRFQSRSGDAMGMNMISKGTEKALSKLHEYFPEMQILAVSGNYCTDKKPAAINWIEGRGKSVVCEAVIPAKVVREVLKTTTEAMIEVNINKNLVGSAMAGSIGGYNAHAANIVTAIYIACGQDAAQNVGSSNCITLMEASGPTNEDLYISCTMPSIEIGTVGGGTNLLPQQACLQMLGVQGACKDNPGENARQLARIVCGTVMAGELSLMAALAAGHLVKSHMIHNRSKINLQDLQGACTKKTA
# Candida albicans = test: Antifungal activity against Candida albicans ATCC10231 assessed as reduction in microbial growth incubated for 16 hrs by broth microdilution method; type: functional
Compound,IC50 (RAW264.7),IC50 [3],MIC (Candida albicans),IC50 (Splenocyte [1]),IC50 (Splenocyte [2])
CC(C)=C/C=C\[C@H](C)[C@H]1CC[C@]2(C)C[C@@]3(O)[C@H](C)CC[C@@H]3/C(CO)=C\C[C@@H]12,> 40 µM,–,–,> 40 µM,15.6 µM
CC(C)=C/C=C\[C@H](C)[C@H]1CC[C@]2(C)C[C@@H]3C(=O)C=C4C3=C(CC[C@@H]12)C(=O)N4CCO,> 40 µM,–,–,25.4 µM,> 40 µM
C=C1[C@H]2[C@H](O)C[C@@](C)(O)[C@H]2C[C@@]2(C)CC[C@H]([C@@H](C)CC/C=C(\C)C(=O)O)[C@@H]2C[C@@H]1O,> 40 µM,–,–,> 40 µM,10.8 µM
CC(C)=CCC[C@H](C)[C@H]1CC[C@]2(C)C[C@@]3(O)[C@H](C)CC[C@@H]3/C(CO)=C\C[C@@H]12,> 40 µM,–,–,> 40 µM,> 40 µM
CC(C)=C/C=C/[C@H](C)[C@H]1CC[C@]2(C)C[C@@]3(O)[C@H](C)C[C@@H](O)[C@@H]3/C(CO)=C\C[C@@H]12,> 40 µM,–,–,> 40 µM,> 40 µM
C[C@@H]1C[C@H]2[C@@H]3CCC4=CC(=O)C=C[C@]4(C)[C@@]3(F)[C@@H](O)C[C@]2(C)[C@@]1(O)C(=O)CO [DEXAMETHASONE],–,–,–,0.47 µM,0.04 µM

# Continued, in another order:
IC50 (RAW264.7),IC50 [3],MIC (Candida albicans),Compound,IC50 (Splenocyte [1]),IC50 (Splenocyte [2])
> 40 µM,–,–,C=C1[C@H]2CC[C@@](C)(O)[C@H]2C[C@@]2(C)CC[C@H]([C@@H](C)CC/C=C(\C)CO)[C@@H]2C[C@@H]1O,19.4 µM,> 40 µM
> 40 µM,–,–,C/C1=C/C[C@H]2[C@@H]([C@@H](C)CC/C=C(\C)CO)CC[C@]2(C)C[C@@]2(O)[C@H](C)CC[C@H]12,> 40 µM,2.29 µM
> 40 µM,–,–,C=C1[C@H]2[C@@H](O)C[C@@](C)(O)[C@H]2C[C@@]2(C)CC[C@H]([C@@H](C)CC/C=C(\C)C(=O)O)[C@@H]2C[C@@H]1O,> 40 µM,> 40 µM
8.31 µM,–,–,CC(C)=C/C=C\[C@H](C)[C@H]1CC[C@]2(C)C[C@@H]3C(C)=CC(=O)[C@H]3[C@H](CO)CC[C@@H]12,> 40 µM,> 40 µM
> 40 µM,–,–,CC(C)=C/C=C\[C@H](C)[C@H]1CC[C@]2(C)C[C@@]3(O)[C@H](C)C[C@@H](O)[C@@H]3/C(CO)=C\C[C@@H]12,> 40 µM,35.8 µM
> 40 µM,–,–,CC1=CC(=O)[C@H]2/C(CO)=C\C[C@H]3[C@@H]([C@@H](C)/C=C\[C@@H]4OC4(C)C)CC[C@]3(C)C[C@H]12,> 40 µM,> 40 µM
–,2.5 µM,4 µg/mL,CC(C)=C[C@H]1C[C@H](C)[C@]2(CC[C@]3(C)C[C@@H]4C(=O)C=C5C4=C(CC[C@H]32)C(=O)N5CCO)O1,–,–
> 40 µM,–,–,CC1=CC(=O)/C2=C(\CO)CC[C@H]3[C@@H]([C@@H](C)CC/C=C(\C)C(=O)O)CC[C@]3(C)C[C@H]12,> 40 µM,> 40 µM
